From patent US8759098B2, “Method for cloning pluripotent stem cells” (Boston Biomedical Research Institute, Inc., priority 2009, dated 2014)

Experiments:
Format in all cases: cell-based, mouse
[1] = tested on: reprogramming genes (Oct4, Sox2, Klf4, Myc, Lin28) in Panstra-25 - Xn responsive; assay: Micro-array expression of reprogramming gene mRNAs, Panstra-25
Excerpt: (§1) Table 2. Micro-array expression levels for described iPSC reprogramming gene mRNAs in SACK-derived mouse pancreatic stem cell strains. […] Panstra-11 is a non-responsive strain.
(§2) All the described induced pluripotent stem cell (iPSC) reprogramming genes are detected in two cell strains derived with the suppression of asymmetric cell kinetics (SACK)-agent xanthine (Xn). The SACK strains were derived from pancreatic islets of adult xanthine phosphoribosyl transferase (XPRT)-transgenic mice. The derivation of such strains requires both the XPRT-transgenic genotype and Xn.

[2] = tested on: reprogramming genes (Oct4, Sox2, Klf4, Myc, Lin28) in Panstra-11-Xn Non-responsive; assay: Micro-array expression of reprogramming gene mRNAs, Panstra-11
Excerpt: as §1, §2

[3] = tested on: SACK-responsive, Pdx1-positive Panstra-25 pancreatic stem cells; assay: Gene-free iPSC reprogramming on STO feeders, colony phenotypes, Panstra-25; conditions: for Estimated gene-free iPSC colony formation efficiency, ES, AP+ (iPSC state) / Estimated gene-free iPSC colony formation efficiency, ES, AP− / Estimated gene-free iPSC colony formation efficiency, Fl, AP+ / Estimated gene-free iPSC colony formation efficiency, Fl, AP− / Phenotype ES, AP+ (iPSC state) of individual cell clones following expansion, clones/total / Phenotype ES, AP+ (iPSC state) of individual cell clones following expansion, percent / Phenotype ES, AP− of individual cell clones following expansion, clones/total / Phenotype ES, AP− of individual cell clones following expansion, percent / Phenotype Fl, AP+ of individual cell clones following expansion, clones/total / Phenotype Fl, AP+ of individual cell clones following expansion, percent / Phenotype Fl, AP− of individual cell clones following expansion, clones/total / Phenotype Fl, AP− of individual cell clones following expansion, percent: Panstra-25, 1 mM Xn
Procedure: Each tested SACK-derived cell strain was cultured on STO cell feeder monolayers in control medium with 10% DFBS, dialyzed fetal bovine serum (DFBS) or either of two commercial media for culture of murine embryonic stem cells (ESCs) and for the culture of reprogrammed cells such as iPSCs. Each medium condition was evaluated with or without supplementation with 1 mM xanthine (Xn). P/S denotes routine use of the antibiotics penicillin and streptomycin.
The method is an original pharmacological procedure for producing pluripotent stem cells. Cell strains derived in xanthine (Xn)-supplemented medium, by the method of suppression of asymmetric cell kinetics (SACK), were cultured in commercial media specified for the culture and/or production of pluripotent stem cells such as embryonic stem cells and iPSCs. Approximately 150,000 cells were plated on confluent STO cell feeders (i.e., mouse embryonic fibroblasts pre-treated with mitomycin C) in 10-cm culture dishes. In 2 weeks, iPSC-like cell colonies were detected.
To establish clonal strains, single colonies were picked, cultured in individual wells, and expanded for further study and cryo-preservation. A high fraction of the derived cell clones have morphological and biochemical properties indicative of iPSC cells.
Tissue-specific stem cells (e.g., Panstra-25 and Panstra-12 mouse pancreatic stem cell strains in the instant example) were cultured on mitomycin C-treated STO cell monolayers in commercial embryonic stem cell medium supplemented with the purine salvage base xanthine at 1 mM concentration (FIG. 4). Within 2-3 weeks of culture under otherwise standard conditions, cell colonies with embryonic stem cell-like morphology developed (FIG. 7B). These colonies were removed by mild trypsin treatment, transferred to individual cell culture wells prepared with STO cell feeders, and expanded in the respective embryonic stem cell culture medium supplemented with 1 mM xanthine (FIG. 5). The expanded cell clones expressed alkaline phosphatase (FIG. 8), a biochemical biomarker for the pluripotent phenotype of embryonic stem cells and iPSC cells. […] Xn supplementation increased the average production efficiency by as much as 3-fold (Table 6).

O=c1[nH]c(=O)c2[nH]cnc2[nH]1 [Xn, xanthine]
Klf4 expression (gene micro-array data) ([1]; Panstra-25, Xn): 31.8
Lin28 expression (gene micro-array data) ([1]; Panstra-25, Xn): 1.0
Myc expression (gene micro-array data) ([1]; Panstra-25, Xn): 35.5
Oct4 expression (gene micro-array data) ([1]; Panstra-25, Xn): 2.3
Sox2 expression (gene micro-array data) ([1]; Panstra-25, Xn): 0.2
Klf4 and Myc mRNA expression in response to culture in Xn ([1]; SACK-derived strains, Table 2): increased mRNA expression
Klf4 expression (gene micro-array data) [2]: 21.6
Lin28 expression (gene micro-array data) [2]: 0.9
Myc expression (gene micro-array data) [2]: 19.6
Oct4 expression (gene micro-array data) [2]: 2.6
Sox2 expression (gene micro-array data) [2]: 0.1
iPSC (gene-free iPSC reprogramming) ([3]; Panstra 25, SACK agent Xn): Yes
Estimated gene-free iPSC colony formation efficiency, ES, AP+ (iPSC state) ([3]; DFBS): 0.000%
Estimated gene-free iPSC colony formation efficiency, ES, AP− ([3]; DFBS): 0.000%
Estimated gene-free iPSC colony formation efficiency, Fl, AP+ ([3]; DFBS): 0.000%
Estimated gene-free iPSC colony formation efficiency, Fl, AP− ([3]; DFBS): 0.059%
Phenotype ES, AP+ (iPSC state) of individual cell clones following expansion, clones/total ([3]; DFBS): 0/22
Phenotype ES, AP+ (iPSC state) of individual cell clones following expansion, percent ([3]; DFBS): 0%
Phenotype ES, AP− of individual cell clones following expansion, clones/total ([3]; DFBS): 0/22
Phenotype ES, AP− of individual cell clones following expansion, percent ([3]; DFBS): 0%
Phenotype Fl, AP+ of individual cell clones following expansion, clones/total ([3]; DFBS): 0/22
Phenotype Fl, AP+ of individual cell clones following expansion, percent ([3]; DFBS): 0%
Phenotype Fl, AP− of individual cell clones following expansion, clones/total ([3]; DFBS): 22/22
Phenotype Fl, AP− of individual cell clones following expansion, percent ([3]; DFBS): 100%
Estimated gene-free iPSC colony formation efficiency, ES, AP+ (iPSC state) ([3]; KOSR): 0.016%
Estimated gene-free iPSC colony formation efficiency, ES, AP− ([3]; KOSR): 0.037%
Estimated gene-free iPSC colony formation efficiency, Fl, AP+ ([3]; KOSR): 0.000%
Estimated gene-free iPSC colony formation efficiency, Fl, AP− ([3]; KOSR): 0.000%
Phenotype ES, AP+ (iPSC state) of individual cell clones following expansion, clones/total ([3]; KOSR): 6/20
Phenotype ES, AP+ (iPSC state) of individual cell clones following expansion, percent ([3]; KOSR): 30%
Phenotype ES, AP− of individual cell clones following expansion, clones/total ([3]; KOSR): 14/20
Phenotype ES, AP− of individual cell clones following expansion, percent ([3]; KOSR): 70%
Phenotype Fl, AP+ of individual cell clones following expansion, clones/total ([3]; KOSR): 0/20
Phenotype Fl, AP+ of individual cell clones following expansion, percent ([3]; KOSR): 0%
Phenotype Fl, AP− of individual cell clones following expansion, clones/total ([3]; KOSR): 0/20
Phenotype Fl, AP− of individual cell clones following expansion, percent ([3]; KOSR): 0%
Estimated gene-free iPSC colony formation efficiency, ES, AP+ (iPSC state) ([3]; hiFBS): 0.008%
Estimated gene-free iPSC colony formation efficiency, ES, AP− ([3]; hiFBS): 0.027%
Estimated gene-free iPSC colony formation efficiency, Fl, AP+ ([3]; hiFBS): 0.003%
Estimated gene-free iPSC colony formation efficiency, Fl, AP− ([3]; hiFBS): 0.013%
Phenotype ES, AP+ (iPSC state) of individual cell clones following expansion, clones/total ([3]; hiFBS): 3/19
Phenotype ES, AP+ (iPSC state) of individual cell clones following expansion, percent ([3]; hiFBS): 16%
Phenotype ES, AP− of individual cell clones following expansion, clones/total ([3]; hiFBS): 10/19
Phenotype ES, AP− of individual cell clones following expansion, percent ([3]; hiFBS): 53%
Phenotype Fl, AP+ of individual cell clones following expansion, clones/total ([3]; hiFBS): 1/19
Phenotype Fl, AP+ of individual cell clones following expansion, percent ([3]; hiFBS): 5%
Phenotype Fl, AP− of individual cell clones following expansion, clones/total ([3]; hiFBS): 5/19
